Data reported in PMC3898886, “P-glycoprotein (Mdr1a/1b) and breast cancer resistance protein (Bcrp) decrease the uptake of hydrophobic alkyl triphenylphosphonium cations by the brain” (Biochimica et Biophysica Acta, 2013).

Columns and labels:
[1] = tested on: P-gp isoforms Mdr1a and Mdr1b; set-up: method as in PMID 19722701; conditions: cited from earlier work
[2] = tissue and blood content of [3H] TPP compound after IV tail vein injection, wild type mice; conditions: 100 nmol IV; for uptake by adipose tissue / uptake by the heart / uptake by the kidneys: wild type and transgenic mice; for AUC for accumulation into the brain: WT mice
Protocol: (§1) For injection the mice were placed in a restraining tube and injected by the tail vein with 100 nmol [^3H] compound (~ 400–500 nCi) in 100 μL sterile phosphate buffered saline (PBS) supplemented with 10% DMSO. A sample of the [^3H] compound solution injected was retained to calculate the specific activity, which was subsequently used to determine the tissue contents of the compound. Two WT mice and two transgenic mice were injected for each compound for each time point. […] At the indicated times after injection, the mice were killed by cervical dislocation and a blood sample of ~ 100–200 μL was obtained by cardiac puncture. The organs were then removed, cleared of blood by cutting into pieces and rinsing with saline, transferred to pre-chilled Eppendorf tubes on ice, weighed and stored at − 80 °C until processing. The tissues taken were: heart, kidneys, liver, brain, skeletal muscle (gastrocnemius) and white adipose tissue (subcutaneous). […] The mice were monitored after injection to ensure no pathology or distress.
Tissues were thawed at room temperature and transferred to 50 mL Falcon tubes. Ice-cold methanol (~ 4 °C; 1 mL/100 mg tissue wet weight) was added to the tissue and the tissue homogenised using an Ultra Turrax homogeniser (2 × 30 s on ice). The homogenate was transferred in 1 mL batches to 1.5 mL Eppendorf tubes and centrifuged (10,000 ×g for 8 min at 4 °C). The methanol extract was decanted into a 20 mL glass scintillation vial (Wheaton) and the methanol evaporated under a stream of N2. Further ice-cold methanol (1 mL/100 mg) was added to the tissue homogenate pellets, vortexed for 1 min, centrifuged as above and the methanol extract decanted to a fresh 20 mL glass scintillation vial and evaporated. This procedure was repeated 3 more times to give 5 extracts per tissue sample. […] Scintillant (OptiPhase HiSafe II; 10 mL) was added to each vial, [^3H] […] The specific activity of the injected [^3H] compound was then used to calculate the tissue content as mol compound/g wet weight tissue.

[3] = published value; cited from earlier work
P-gp = test: uptake of [3H] MitoF into tissues after pretreatment with CsA; assay type: in vivo, female C57/BL6 mice; conditions: tissues 60 min later
Protocol: To assess the effects of co-administration of cyclosporin A (CsA) on the uptake of MitoF, female C57/BL6 mice (~ 20 g) were used. The mice were injected with CsA (Sandimmun, Novartis supplied as 50 mg/mL solution which was diluted 1:4 in sterile PBS and injected 100 μL at 50 mg/kg) IV by tail vein injection, or with PBS carrier, followed 30 min later with [^3H] MitoF (100 nmol) by IV tail vein injection and 60 min later the mice were killed and the tissues harvested. All procedures were approved by the University of Otago animal ethics committee.

[4] = tested on: P-glycoprotein (Mdr1a/1b) and breast cancer resistance protein (Bcrp); test: tissue and blood content of [3H] TPP compound after IV injection, transgenic mice lacking ABC transporters, compared with wild type; conditions: for uptake into the brain, transgenic compared to wild type mice: radioactivity in brain over 20 h; for ratio of compound in the brain relative to the blood, transgenic versus WT: 5 h after IV injection of 100 nmol; for AUC for accumulation into the brain: transgenic mice
Protocol: as §1
Tissues were thawed at room temperature and transferred to 50 mL Falcon tubes. Ice-cold methanol (~ 4 °C; 1 mL/100 mg tissue wet weight) was added to the tissue and the tissue homogenised using an Ultra Turrax homogeniser (2 × 30 s on ice). The homogenate was transferred in 1 mL batches to 1.5 mL Eppendorf tubes and centrifuged (10,000 ×g for 8 min at 4 °C). The methanol extract was decanted into a 20 mL glass scintillation vial (Wheaton) and the methanol evaporated under a stream of N2. Further ice-cold methanol (1 mL/100 mg) was added to the tissue homogenate pellets, vortexed for 1 min, centrifuged as above and the methanol extract decanted to a fresh 20 mL glass scintillation vial and evaporated. This procedure was repeated 3 more times to give 5 extracts per tissue sample. […] Scintillant (OptiPhase HiSafe II; 10 mL) was added to each vial, [^3H] DPM content measured in a scintillation counter (LKB Wallac 1217 Rackbeta) using appropriate quench corrections and the total amount of radioactivity per sample calculated. The specific activity of the injected [^3H] compound was then used to calculate the tissue content as mol compound/g wet weight tissue.

[5] = cited from earlier work
[6] = monitoring of mice after IV injection for pathology or distress; assay type: in vivo; conditions: 100 nmol IV
Protocol: as §1

[7] = 100 nmol IV, 1 to 48 h post injection
[8] = 100 nmol IV, 1 to 20 h post injection

Question: For `c1ccc([P+](c2ccccc2)(c2ccccc2)c2ccccc2)cc1` [tetraphenylphosphonium cation, tetraphenylphosphonium], which “effect of ablation of Mdr1a and Mdr1b on uptake across the BBB” value [1] is on record?
Answer: The value was “did not increase”.

Question: Which “uptake by adipose tissue” value [2] does the source give for `FCCCCCCCCCCC[P+](c1ccccc1)(c1ccccc1)c1ccccc1` [MitoF, Fluoroundecyltriphenylphosphonium] here?
Answer: The value was “lower uptake”.

Question: And the “uptake by the heart” value [2]?
Answer: Its value is “less extensive uptake”.

Question: What about the “uptake by the kidneys” value [2] of the same compound?
Answer: The value was “extensive uptake”.

Question: What about the “AUC for accumulation into the brain” value ([2]; 1 to 48 h post injection) of the same compound?
Answer: Its value is 1.9 nmol·h/g wet weight.

Question: What about the octan-1-ol/PBS partition coefficient [3] of the same compound?
Answer: Its octan-1-ol/PBS partition coefficient is 740 ± 100.

Question: And the “effect of CsA on uptake into the brain, muscle, fat, heart or kidney” value (P-gp; CsA 50 mg/kg IV 30 min before 100 nmol [3H] MitoF IV)?
Answer: The value was “did not affect”.

Question: What about the “effect of CsA on uptake into the liver” value (P-gp; CsA 50 mg/kg IV 30 min before 100 nmol [3H] compound IV) of the same compound?
Answer: The value was “increase uptake”.

Question: And the “uptake in the liver, transgenic mice compared to controls” value ([4]; 100 nmol IV)?
Answer: The value was “increase in the uptake”.

Question: What about the “uptake into heart, kidney and white adipose tissue, transgenic versus wild type mice” value ([4]; 100 nmol IV) of the same compound?
Answer: Its value is “no difference”.

Question: What about the “increase of brain AUC, transgenic versus WT” value [4, 7] of the same compound?
Answer: Its value is ~ 9 fold.

Question: And the “uptake into the brain, transgenic compared to wild type mice” value ([4]; 100 nmol IV)?
Answer: Its value is “greater uptake into the brain”.

Question: What about the “ratio of compound in the brain relative to the blood, transgenic versus WT” value [4] of the same compound?
Answer: The value was “increased uptake”.

Question: What about the “AUC for accumulation into the brain” value [4, 7] of the same compound?
Answer: The value was 16.6 nmol·h/g wet weight.

Question: Which results are given for `C[P+](c1ccccc1)(c1ccccc1)c1ccccc1` [TPMP, methyltriphenylphosphonium, reference compound]?
Answer: uptake by adipose tissue [2]: lower uptake; uptake by the heart [2]: less extensive uptake; AUC for accumulation into the brain ([2]; 1 to 5 h post injection): 0.87 nmol·h/g wet weight; uptake in the liver, transgenic mice compared to controls ([4]; 100 nmol IV): not; change of brain AUC, transgenic versus WT ([4]; 100 nmol IV, 1 to 5 h post injection): unchanged; uptake into the brain, transgenic compared to wild type mice ([4]; 100 nmol IV): no difference

Question: Which “effect of CsA on biliary excretion” value [5] does the source give for `COC1=C(OC)C(=O)C(CCCCCCCCCC[P+](c2ccccc2)(c2ccccc2)c2ccccc2)=C(C)C1=O` [MitoQ, mitoquinone] here?
Answer: The value was “inhibited”.

Question: What about the “proportion of an IV dose excreted by the biliary pathway” value ([5]; within 4 h) of the same compound?
Answer: Its value is 25%.

Question: And the “uptake by adipose tissue” value [2]?
Answer: The value was “lower uptake”.

Question: And the “uptake by the heart” value [2]?
Answer: The value was “less extensive uptake”.

Question: What about the “uptake by the kidneys” value [2] of the same compound?
Answer: Its value is “extensive uptake”.

Question: And the “AUC for accumulation into the brain” value ([2]; 1 to 20 h post injection)?
Answer: The value was 0.6 nmol·h/g wet weight.

Question: What about the octan-1-ol/PBS partition coefficient [3] of the same compound?
Answer: Its octan-1-ol/PBS partition coefficient is 2760.

Question: And the “toxicity of the injected amount” value [6]?
Answer: Its value is “non-toxic”.

Question: What about the “uptake in the liver, transgenic mice compared to controls” value ([4]; 100 nmol IV) of the same compound?
Answer: The value was “increase in the uptake”.

Question: And the “uptake into heart, kidney and white adipose tissue, transgenic versus wild type mice” value ([4]; 100 nmol IV)?
Answer: The value was “no difference”.

Question: And the “increase of brain AUC, transgenic versus WT” value [4, 8]?
Answer: The value was ~ 4 fold.

Question: And the “uptake into the brain, transgenic compared to wild type mice” value ([4]; 100 nmol IV)?
Answer: Its value is “greater uptake into the brain”.

Question: What about the “ratio of compound in the brain relative to the blood, transgenic versus WT” value [4] of the same compound?
Answer: Its value is “increased uptake”.

Question: And the “AUC for accumulation into the brain” value [4, 8]?
Answer: Its value is 2.3 nmol·h/g wet weight.
